Earlier results in publication PMC3780389 (Experimental neurology, 2012).

Assays:
hAPP Tg AD mice = conditions: chronic administration, ref Ricobaraza, et al., 2011
3x-Tg AD mice = conditions: ref Green, et al., 2008, Hempen and Brion, 1996
[1] = tested on: APP23 transgenic mouse model of AD; conditions: ref Qing, et al., 2008

sodium 4-phenylbutyrate [sodium 4-phenylbutyrate (4-PBA)]
Aβ levels (hAPP Tg AD mice): decreased Aβ levels

NC(=O)c1cccnc1 [nicotinamide]
Thr231-phosphotau (3x-Tg AD mice): selectively decreases | level of acetylated α-tubulin (3x-Tg AD mice): increases

CCCC(CCC)C(=O)O [Valproic acid]
Aβ plaque number [1]: significantly reduce Aβ plaque number
